From US20160146815A1, “METHOD FOR SCREEING CANCER METASTASIS INHIBITOR USING CULTURE OF CELLS OR SPHEROIDICALLY AGGREGATED CELLS IN WHICH LYSYL-TRNA SYNTHETASE IS REGULATED TO BE EXPRESSED OR UNEXPRESSED” (Medicinal Bioconvergence Research Center, priority 2013, published 2016)
Entries after “also recorded” stand apart in the source; their conditions may differ.

Columns and labels:
[1] = tested on: lysyl-tRNA synthetase (KRS); assay: KRS expression after shRNA transfection (Western blotting); assay type: cell-based, homo sapiens; settings: HCT116 cells transfected with KRS shRNA plasmid DNA
Source text: Particularly, the cell line wherein KRS expression was suppressed was constructed by transfecting cells with lysyl-tRNA synthetase MISSION® shRNA plasmid DNA (Sigma, USA). At this time, the said KRS was homo sapiens lysyl-tRNA synthetase (transcript variant 1, mRNA sequence: NM_001130089.1). This KRS includes […] long exon 1˜15. Among the purchased KRS shRNA plasmid DNAs, shKRS-0 (SEQ. ID. NO: 1) targets 1581˜1604 bp (exon 12) of KRS, shRKS-1 (SEQ. ID. NO: 2) targets 437˜459 bp (exon 3˜4), shKRS-2 (SEQ. ID. NO: 3) targets 911˜933 bp (exon 7), and shKRS-5 (SEQ. ID. NO: 4) targets 1071˜1092 bp (exon 8). TRC1.5-pLK0.1-puro was used as the expression vector. Selection was performed by using puromycin to establish stable cell lines.
Western blotting was performed to investigate whether or not the KRS expression was inhibited in the spheroidically aggregated cells of the KRS knock-out cell lines constructed by the method of Example <2-1>.

[2] = tested on: HCT116 spheroidically aggregated cells; assay: Dissemination of cells from spheroidically aggregated cells in three-dimensional collagen gel (time-lapse microscope); assay type: cell-based, human
Method: Particularly, 2.5 mg/Ml of collagen containing cells was loaded in the magnetic 4-well chamber (Live Cell Instrument, Korea) for the culture system of time-lapse microscope, and the collagen was hardened in a 37° C. incubator for 30 minutes. When the collagen was fully solidified, PRMI-1640 supplemented with 10% FBS was added thereto. The magnetic chamber containing three-dimensional collagen gel and its corresponding adaptor were placed on the time-lapse microscope, followed by setting the multi-position. […] 5% CO2 incubator. Culture medium was added thereto every 6 hours in order for the collagen not to be dried. At this time, it is important to maintain the focus not to be changed. […]
As confirmed in the result of Example 14, when the HCT116 parental cells were treated with TGFβ1, the dissemination of cells from the spheroidically aggregated cells and migration thereof were observed. When the KRS knock-out cell line was treated with TGFβ1, the dissemination of cells was not observed. […] When the extracellular signal-regulated kinase (ERKs) inhibitor U0126 was treated to the HCT116 parental cells, it was presumed to be negative effect on the dissemination and migration of cells. To verify above, 50 μM of U0126, the ERKs inhibitor, was treated to the cell line, followed by observation of cell dissemination and migration by real-time live imaging of the spheroidically aggregated cells.

HCT116 cells = assay: EMT marker protein expression in two-dimensional culture treated with cytokines (Western blotting); assay type: cell-based, human; settings: 10% FBS
Method: Particularly, the cell line cultured in a two-dimensional environment with 10% serum was washed with PBS twice, followed by reaction at 4° C. for 15 minutes in 200 μl of lysis buffer [50 mM Tris-HCl, pH 7.4, 1% NP-40, 0.25% sodium deoxycholate, 150 mM NaCl, 1 mM EDTA] supplemented with SDS, Na3O4V, and protease inhibitor cocktails (GenDepot, USA). The cells were collected and centrifuged at 4° C. at 13000×g for 30 minutes. The supernatant was transferred in a new microcentrifuge tube, followed by protein quantification using BCA reagent (Thermo Scientifics, USA). To the quantified sample was added 4× sample buffer [100% glycerol 4 ml, Tris-HCl, pH 6.8, 2.4 ml, SDS 0.8 g, bromophenol blue 4 mg, β-mercaptoethanol 0.4 ml, H2O 3.1 ml (total 10 Ml)], which was boiled at 100° C. for 5 minutes. The prepared sample was treated with the primary antibodies of ZO-1 (Zymed, USA), β-catenin (Santa Cruz, USA), and E-cadherin by the same manner as described in Example <1-2>.
To observe the surrounding microenvironmental factors in a two-dimensional culture environment over the time, the culture fluid supplemented with 10% FBS was additionally treated with such cytokines as TNFα and TGFβ, followed by investigation of the expression of the epithelial marker protein that can be an index for cell-cell adhesion by the same manner as described in Example <3-1>.

[3] = TGFβ1, normal HCT116 and KRS over-expressing cell line

## shKRS-0: KRS MISSION shRNA plasmid DNA (Sigma), SEQ. ID. NO: 1, targets 1581˜1604 bp (exon 12) of KRS (DNA CCGGCCTGGAAGTGACTTGCATCAACTCGAGTTGATGCAAGTCACTTCCAGGTTTTTG)
[1]
  KRS expression: KRS inhibiting effect

## TNFα
[2]; TNFα, 36 hours, HCT116 parental cells, KRS over-expressing cell line and KRS knock-out cell line
  formation of invasive protrusion: increased
[2]; TNFα, 36 hours, parental, KRS over-expressing and KRS knock-out cell lines (regardless of KRS expression)
  dissemination of cells from the cell mass and cell migration: observed
HCT116 cells; KRS knock-out cell line
  epithelial marker protein like occludin (ZO-1 and occludin) expression: increased
  fibronectin expression: reduced
HCT116 cells; TNFα, normal HCT116 and KRS over-expressing cell line
  expression of the epithelial marker protein: not changed

## shKRS-5: KRS MISSION shRNA plasmid DNA (Sigma), SEQ. ID. NO: 4, targets 1071˜1092 bp (exon 8) of KRS (DNA CCGGGCCTTTCATCACTTATCACAACTCGAGTTGTGATAAGTGATGAAAGGCTTTTTG)
[1]
  KRS expression: KRS inhibiting effect

## shKRS-2: KRS MISSION shRNA plasmid DNA (Sigma), SEQ. ID. NO: 3, targets 911˜933 bp (exon 7) of KRS (DNA CCGGCCAGAGATACTTGGACTTGATCTCGAGATCAAGTCCAAGTATCTCTGGTTTTTG)
[1]
  KRS expression: KRS inhibiting effect

## TGFβ1: the most representative multifunctional and EMT inducing cytokine
[2]; TGFβ1, 36 hours, HCT116 parental cells and KRS over-expressing cell lines
  formation of invasive protrusion: not observed
[2]; TGFβ1, HCT116 parental cells and KRS over-expressing cell lines
  dissemination of cells from spheroid cells: observed
[2]; TGFβ1, KRS knock-out cell line
  cell migration: significantly decreased
  dissemination of cells: not and not observed
HCT116 cells; KRS knock-out cell line
  epithelial marker protein like occludin (ZO-1 and occludin) expression: increase; also recorded: up-regulated
  fibronectin expression: reduced; also recorded: down-regulated; also recorded: decrease
HCT116 cells; [3]
  fibronectin expression: up-regulated
  occludin or ZO-1 expression: down-regulated
